The test system of assay [1] is native P2X3Rs / P2X2/3Rs in NG neurons. Briefly: Whole-cell recording of α,β-meATP currents in cultured nodose ganglion (NG) neurons. The format is cell-based, rat. The conditions noted are these: 1 µM, 6 min; 10 µM α,β-meATP. The method, then: (§1) Rat trigeminal, nodose, or dorsal root ganglion (TG, NG, and DRG, respectivley) neurons in culture were prepared as described previously.[46],[47] Neurons were plated on poly-L-lysine (0.2 mg/ml)-coated Petri dishes and cultured for one to two days under an atmosphere containing 5% CO2. Cells were used within two days of plating when they lacked processes. HEK293T cells were prepared as reported previously[32],[48] and transfected with rat or human full-length P2X3 cDNA subcloned into pIRES2-EGFP (Clontech, Mountain View, CA, USA).
(§2) TG, NG, DRG, or HEK cells were recorded in the whole-cell configuration while being continuously superfused (at 2 ml/min) with control solution containing (in mM): 152 NaCl, 5 KCl, 1 MgCl2, 2 CaCl2, 10 glucose, and 10 HEPES; pH was adjusted to 7.4 with NaOH and osmolarity was adjusted to 320 mOsM with glucose. […] Responses to selective P2X3R agonist α,β-methylene-ATP (α,β-meATP; resistant to ectoATPase hydrolysis, Sigma-Aldrich) were measured using an EPC-9 amplifier operated by HEKA Patch Master software (HEKA Electronik, Germany). Cells were voltage-clamped at −70 mV. In most cells, series resistance was compensated by 80%. To determine EC50 values, dose-response curves were constructed for α,β-meATP by administering different agonist doses same cells and fitting data to a logistic equation (Origin 8.0, Microcal, Northampton, MA). […]

Assay [2] deals with T1, native P2X3Rs / P2X2/3Rs in NG neurons (Rattus norvegicus, UniProt P49653+P49654).
T1 construct: effects of AppNHppA on native P2X3Rs in TG, DRG, and NG neurons were investigated; while NG neurons express heteromeric P2X2/3Rs subunits; endogenous in cells; host or cells: cultured rat nodose ganglion (NG) neurons
T1 sequence (P49654 1-397): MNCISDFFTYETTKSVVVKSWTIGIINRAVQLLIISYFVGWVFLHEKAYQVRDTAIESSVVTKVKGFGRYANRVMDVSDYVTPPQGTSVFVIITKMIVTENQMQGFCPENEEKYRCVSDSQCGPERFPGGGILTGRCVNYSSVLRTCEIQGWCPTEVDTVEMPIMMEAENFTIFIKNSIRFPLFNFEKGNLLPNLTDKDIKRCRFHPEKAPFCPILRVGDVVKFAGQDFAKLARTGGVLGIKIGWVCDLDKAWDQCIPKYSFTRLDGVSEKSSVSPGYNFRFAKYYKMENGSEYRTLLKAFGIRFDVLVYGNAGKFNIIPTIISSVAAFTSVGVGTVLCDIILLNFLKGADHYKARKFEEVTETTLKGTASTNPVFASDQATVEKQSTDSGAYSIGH
T1 sequence (P49653 1-472): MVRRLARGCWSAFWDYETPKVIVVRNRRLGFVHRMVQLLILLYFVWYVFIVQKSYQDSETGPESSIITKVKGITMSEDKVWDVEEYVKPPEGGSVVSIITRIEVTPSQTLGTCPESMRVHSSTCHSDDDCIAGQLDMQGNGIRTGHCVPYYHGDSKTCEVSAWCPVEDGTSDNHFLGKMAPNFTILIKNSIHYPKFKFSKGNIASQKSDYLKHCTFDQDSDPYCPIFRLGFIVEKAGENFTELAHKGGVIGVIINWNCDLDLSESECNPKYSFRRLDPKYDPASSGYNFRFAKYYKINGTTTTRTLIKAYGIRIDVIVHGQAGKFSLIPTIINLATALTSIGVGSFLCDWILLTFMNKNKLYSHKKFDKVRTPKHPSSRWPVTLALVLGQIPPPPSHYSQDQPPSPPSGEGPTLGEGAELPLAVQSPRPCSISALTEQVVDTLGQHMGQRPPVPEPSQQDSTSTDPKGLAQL
Described as above. As to conditions: read-out: inhibition of sustained residual component in NG neurons. The format is cell-based. On the procedure:
as §1, §2

Assay [3] has as its target T2, rat P2X2 receptors (Rattus norvegicus, UniProt P49653).
T2 construct: expressed in transfected cells; host or cells: HEK293
T2 sequence (P49653 1-472): T1 sequence (P49653 1-472)
Briefly: Whole-cell patch clamp on HEK293 cells expressing rat P2X2 receptors (ATP-induced currents). Format: cell-based. As to conditions: 1 µM; 10 µM ATP every 2 min. On the technique in general: Patch clamp records ionic current or voltage across a cell membrane.

Entries after “also recorded” stand apart in the source; their conditions may differ.

A word on the inhibition: it is the drop in the measured response relative to a control, in per cent. With `Nc1ncnc2c1ncn2[C@@H]1O[C@H](COP(=O)(O)OP(=O)(O)NP(=O)(O)OP(=O)(O)OC[C@H]2O[C@@H](n3cnc4c(N)ncnc43)[C@H](O)[C@@H]2O)[C@@H](O)[C@H]1O` [AppNHppA, diadenosine 5′,5′′′-P^1,P^4-(β,γ-imido)tetraphosphate], the “inhibition of peak currents in NG neurons” value in assay [1] is reported as 16.8 ± 11.8%. Besides, in assay [2], the inhibition at 1 µM is 2 ± 4%. Also, the “HAD or partial agonism effect on P2X2R-mediated currents” value in assay [3] is “did not produce any HAD or partial agonism effects; also recorded: does not inhibit”.

(Values after article PMC4955970, “Stable, synthetic analogs of diadenosine tetraphosphate inhibit rat and human P2X3 receptors and inflammatory pain” (Molecular Pain, 2016).)
